Literature values in US6689382B2, “Soft shell gelatin capsules containing non-steroidal anti-inflammatories” (priority 2002, dated 2004).

Tests used:
COX-2 and COX-1 = details: for selectivity for COX-1 and COX-2 (in words): conventional 1st generation NSAIDs; for ratio COX-2 IC50 divided by COX-1 IC50: in vitro, the smaller the ratio the more selective for COX-2
[1] = clinical trials

| SMILES | selectivity for COX-1 and COX-2 (in words) (COX-2 and COX-1) | ratio COX-2 IC50 divided by COX-1 IC50 (COX-2 and COX-1) | also measured |
| --- | --- | --- | --- |
| CC(C)Cc1ccc(C(C)C(=O)O)cc1 (stereo not shown) [ibuprofen] | essentially non-selective | – | – |
| COc1ccc2cc([C@H](C)C(=O)O)ccc2c1 [naproxen] | essentially non-selective | – | – |
| CC(C(=O)O)c1cccc(C(=O)c2ccccc2)c1 (stereo not shown) [ketoprofen] | relatively COX-1 selective | – | – |
| COc1ccc2c(c1)c(CC(=O)O)c(C)n2C(=O)c1ccc(Cl)cc1 [indomethacin] | – | about 30 | – |
| CN1C(C(=O)Nc2ccccn2)=C(O)c2ccccc2S1(=O)=O [piroxicam] | – | about 30 | – |
| Cc1ccc(-c2cc(C(F)(F)F)nn2-c2ccc(S(N)(=O)=O)cc2)cc1 [celecoxib, Celecoxib] | – | – | anti-inflammatory activity [1]: effective anti-inflammatory activity; gastrointestinal adverse effects ([1]; compared to placebo): virtually no gastrointestinal adverse effects |
